Experimental data from patent US20200397796A1, “METHODS OF TREATMENT OF CANCER COMPRISING CHK1 INHIBITORS” (SIERRA ONCOLOGY, INC., priority 2018, published 2020).

Legend:
[1] = Phase 1 clinical trial, SRA737 in combination with gemcitabine dose escalation; format: in vivo, human; details: for AUC(0-t) / Cmax / Tmax / half-life: human, plasma, oral, mean
Method: A Phase 1 clinical trial was conducted in ‘all corners,’ i.e. no genetic selection was performed, to establish safety, tolerability and pharmacokinetics for SRA737 administered in combination with gemcitabine (“Dose Escalation Phase”). Cohorts consisting initially of a single subject received escalating doses of SRA737, starting in Cohort 1 with 40 mg/day administered orally on days 2, 3, 9, 10, 16, and 17 of each 28-day cycle. Cohorts also received various doses of gemcitabine, starting in Cohort 1 with 300 mg/m^2/day administered IV over 30 minutes on days 1, 8, and 15 of each 28-day cycle.
FIG. 3 presents a summary of dosing amounts for the cohorts tested. In the Dose Escalation Phase, a total of 55 subjects received SRA737 in 13 dose escalation cohorts at doses of 40 to 600 mg SRA737 combined with LDG doses of 50 to 300 mg/m^2.
At this dose, the Cmin (52 ng/mL) exceeded that determined in preclinical models to be effective.
Additional cohorts are monitored escalating the dose of SRA737 until the maximum tolerated dose (MTD) is identified and to optimize combination dosing with gemcitabine. All enrolled subjects who receive at least 1 dose of SRA737 and provide at least 1 evaluable PK concentration or have evaluable data for each specific PDn assessment are evaluable for PK and PDn, respectively. Serious adverse events (SAEs) are collected starting on the date of informed consent. Radiological assessment are performed within 4 weeks from the first dose of SRA737 (or gemcitabine if the SRA737 dose for PK is omitted) and repeated every 6 weeks in Stage 1. In Stage 2, assessments are performed every 8 weeks and in long-term follow-up every 16 weeks. Assessments are performed more frequently, when clinically indicated. Cardiac assessments (echocardiogram [ECHO] and electrocardiogram [ECG]) are be conducted. Optional triplet tumor biopsies in some cases are collected within 28 days prior to receiving the first SRA737 dose. Within 7 days of the first dose of SRA737 (or gemcitabine if the SRA737 dose for PK is omitted), the following assessments are completed: complete physical examination, clinical disease assessment, SAE and concomitant medication, WHO performance status and local laboratory assessment of blood (for hematology, biochemistry, and pregnancy testing). At the single-dose PK run-in on Day −7 to Day −4 visit, concomitant medication, vital signs (including temperature, blood pressure, and pulse), height, weight, body surface area (BSA), and WHO performance status are collected. Blood samples are obtained predose for hematology, biochemistry, pregnancy testing, troponin I or T, as well as for tumor markers and tumor profiling. Adverse events (AEs) are collected starting at the administration of SRA737. Archival tissue is submitted for tumor profiling. PK samples are collected at up to 10 time points over a 48-hour time period on Day −7 to −4 (first dose of SRA737 for PK). The sponsor in some cases reduces the requirement for PK sampling, including modification or elimination of the Day −7 to Day −4 visit once sufficient data to evaluate the single-dose PK of SRA737 have been collected and analyzed. […]

[2] = as above; format: in vivo; details: human, plasma, oral, 20 mg, Day −7, mean, n = 8-10
[3] = Plasma protein binding, rapid equilibrium dialysis, dog; format: in vitro ADME; details: 10 μM
Method: (§1) The PK of SRA737 have been determined in the mouse, rat, dog and monkey following oral and IV administration (Table 3). […] An acceptable terminal elimination t1/2 was also observed in each species. […] The plasma protein binding of SRA737 at 1 and 10 μM was examined in mouse, minipig, monkey and human plasma using ultracentrifugation and in dog plasma (10 μM) using rapid equilibrium dialysis.

[4] = Single dose PK, rat; format: in vivo
Method: as §1

[5] = Plasma protein binding, ultracentrifugation, minipig; format: in vitro ADME; details: for Percentage Bound / Percentage Free: Minipig plasma
Method: as §1

[6] = tested on: rat hepatocytes; test: Stability in cryopreserved hepatocytes, rat; format: in vitro ADME; details: 10 μM, after 4 hours of incubation
Method: The formation of SRA737-related metabolites was determined in cryopreserved hepatocytes from human, mouse, rat, dog, minipig and monkey samples after incubation with SRA737 at a nominal concentration of 10 μM for up to 4 hours. […] In the human hepatocyte preparation, approximately 67% of the parent remained after 4 hours of incubation compared to 75% and 7% in the rat and minipig preparations, respectively. Eight human SRA737 metabolites were observed. All SRA737 metabolites formed by human hepatocytes were also formed by monkey hepatocytes. Six metabolites were present at equal or greater abundance in the monkey.

[7] = in vivo, Rat IV 5 mg/kg single dose
[8] = in vivo, Rat oral 10 mg/kg single dose

Structure (SMILES): N#Cc1cnc(Nc2cc(NCC3CNCCO3)c(C(F)(F)F)cn2)cn1 (stereo not drawn) [SRA737, 5-[[4-[[morpholin-2-yl]methylamino]-5-(trifluoromethyl)-2-pyridyl]amino]pyrazine-2-carbonitrile]
- Cmin ([1]; 150 mg SRA737): 52 ng/mL
- dose limiting toxicities (DLTs) ([1]; 40 to 600 mg SRA737 combined with gemcitabine 50 to 300 mg/m^2): No protocol-defined dose limiting toxicities
- AUC(0-t) ([1]; 20 mg, Day −7, n = 8-10, read-out: AUC0-12): 145 ng·h/mL
- Cmax ([1]; 40 mg, Day 10, n = 4): 117 ng/mL
- Tmax ([1]; 40 mg, Day 10, n = 4): 1.8 h
- AUC(0-t) ([1]; 40 mg, Day 10, n = 4, read-out: AUC0-12): 543 ng·h/mL
- Cmax ([1]; 40 mg, Day −7, n = 6): 106 ng/mL
- Tmax ([1]; 40 mg, Day −7, n = 6): 2 h
- AUC(0-t) ([1]; 40 mg, Day −7, n = 6, read-out: AUC0-12): 486 ng·h/mL
- AUC(0-t) ([1]; 40 mg, Day −7, n = 6, read-out: AUC0-24): 637 ng·h/mL
- Cmax ([1]; 80 mg, Day 10, n = 3): 113 ng/mL
- Tmax ([1]; 80 mg, Day 10, n = 3): 2 h
- AUC(0-t) ([1]; 80 mg, Day 10, n = 3, read-out: AUC0-12): 570 ng·h/mL
- Cmax ([1]; 80 mg, Day −7, n = 3): 146 ng/mL
- Tmax ([1]; 80 mg, Day −7, n = 3): 2 h
- AUC(0-t) ([1]; 80 mg, Day −7, n = 3, read-out: AUC0-12): 641 ng·h/mL
- AUC(0-t) ([1]; 80 mg, Day −7, n = 3, read-out: AUC0-24): 825 ng·h/mL
- Cmax ([1]; 150 mg, Day 10, n = 3): 331 ng/mL
- Tmax ([1]; 150 mg, Day 10, n = 3): 1.5 h
- AUC(0-t) ([1]; 150 mg, Day 10, n = 3, read-out: AUC0-12): 1680 ng·h/mL
- Cmax ([1]; 150 mg, Day −7, n = 4): 548 ng/mL
- Tmax ([1]; 150 mg, Day −7, n = 4): 1.8 h
- AUC(0-t) ([1]; 150 mg, Day −7, n = 4, read-out: AUC0-12): 2630 ng·h/mL
- AUC(0-t) ([1]; 150 mg, Day −7, n = 4, read-out: AUC0-24): 3550 ng·h/mL
- Cmax ([1]; 300 mg, Day 10, n = 7): 1080 ng/mL
- Tmax ([1]; 300 mg, Day 10, n = 7): 1.7 h
- AUC(0-t) ([1]; 300 mg, Day 10, n = 7, read-out: AUC0-12): 5140 ng·h/mL
- Cmax ([1]; 300 mg, Day −7, n = 7): 995 ng/mL
- Tmax ([1]; 300 mg, Day −7, n = 7): 2.4 h
- AUC(0-t) ([1]; 300 mg, Day −7, n = 7, read-out: AUC0-12): 4530 ng·h/mL
- AUC(0-t) ([1]; 300 mg, Day −7, n = 7, read-out: AUC0-24): 5910 ng·h/mL
- Cmax ([1]; 500 mg, Day 10, n = 19-22): 1720 ng/mL
- Tmax ([1]; 500 mg, Day 10, n = 19-22): 2.4 h
- AUC(0-t) ([1]; 500 mg, Day 10, n = 19-22, read-out: AUC0-12): 10200 ng·h/mL
- Cmax ([1]; 500 mg, Day −7, n = 29): 1430 ng/mL
- Tmax ([1]; 500 mg, Day −7, n = 29): 2.4 h
- AUC(0-t) ([1]; 500 mg, Day −7, n = 29, read-out: AUC0-12): 8320 ng·h/mL
- AUC(0-t) ([1]; 500 mg, Day −7, n = 29, read-out: AUC0-24): 11400 ng·h/mL
- Cmax ([1]; 600 mg, Day 10, n = 4): 2110 ng/mL
- Tmax ([1]; 600 mg, Day 10, n = 4): 2.5 h
- AUC(0-t) ([1]; 600 mg, Day 10, n = 4, read-out: AUC0-12): 11900 ng·h/mL
- Cmax ([1]; 600 mg, Day −7, n = 4): 2210 ng/mL
- Tmax ([1]; 600 mg, Day −7, n = 4): 1.8 h
- AUC(0-t) ([1]; 600 mg, Day −7, n = 4, read-out: AUC0-12): 11800 ng·h/mL
- AUC(0-t) ([1]; 600 mg, Day −7, n = 4, read-out: AUC0-24): 15100 ng·h/mL
- half-life ([1]; 20 mg, Day −7, n = 8-10): 4.09 h
- half-life ([1]; 40 mg, Day −7, n = 6): 11.6 h
- half-life ([1]; 80 mg, Day −7, n = 3): 11.3 h
- half-life ([1]; 150 mg, Day −7, n = 4): 12.7 h
- half-life ([1]; 300 mg, Day −7, n = 7): 11.8 h
- half-life ([1]; 500 mg, Day −7, n = 29): 11.8 h
- half-life ([1]; 600 mg, Day −7, n = 4): 11.1 h
- Cmax [2]: 31.3 ng/mL
- Tmax [2]: 1.9 h
- Percentage Bound [3]: 68.8%
- Percentage Free [3]: 31.2%
- Foral ([4]; Rat oral 10 mg/kg single dose): 42%
- AUC(0-t) [4, 7]: 1380 ng·h/mL
- half-life [4, 7]: 1 h
- AUC(0-t) [4, 8]: 1170 ng·h/mL
- Cmax [4, 8]: 190 ng/mL
- Tmax [4, 8]: 2 h
- half-life [4, 8]: 4.6 h
- Percentage Bound ([5]; 1 μM): 85.2%
- Percentage Free ([5]; 1 μM): 14.9%
- Percentage Bound ([5]; 10 μM): 75.5%
- Percentage Free ([5]; 10 μM): 24.5%
- fraction unbound ([5]; plasma, minipig, summary of 1 and 10 μM): ~0.2
- parent remained [6]: 75%
